Experimental findings from patent publication US7115597B2, “Tyrosine kinase inhibitors” (Merck & Co., Inc., priority 2000, dated 2006) are described below.

SMILES strings stand for the structures. Where a name gives a salt, the structure may show the parent alone.

As usually defined, the melting point is the temperature of the solid-liquid transition. Turning to `c1ccc(-c2cnc(Nc3ccncn3)s2)cc1` [Compound 1-3, (5-Phenyl-thiazol-2-yl)-pyrimidin-4-yl-amine], the melting point was greater than 250 °C.

Regarding `N#Cc1cnc(Nc2cc(N3CCN(CC(=O)O)CC3)ncn2)s1` (as salt: TFA) [Compound 26-3, (4-{6-[(5-cyano-1,3-thiazol-2-yl)amino]pyrimidin-4-yl}piperazin-1-yl)acetic acid], the melting point was 285 to 287 °C (dec.).
